Test results from patent USRE50724E1, “4-membered ring carboxamides used as nematicides” (SYNGENTA CROP PROTECTION AG, priority 2013, dated 2026).

What follows are compounds tested on Heterodera schachtii (assay: Heterodera schachtii (sugar beet cyst nematode), nematicide, contact activity: juvenile paralysis in 16-well assay plates). Conditions: 200 ppm, approx. 500 juveniles per well, 24 hours incubation at 25° C. in darkness, read-out: nematode immobilization compared to the untreated control.
Type: in vivo
Protocol: Heterodera schachtii (Sugar Beet Cyst Nematode), Nematicide, Contact Activity
The tested application rate of each compound was 200 ppm. All solutions were brought to a concentration of 400 ppm, respectively, as they were subsequently diluted by adding the equivalent amount of water containing juvenile nematodes. After preparation of the suspensions, 1 ml of each suspension and concentration was transferred to 16-well assay plates with a total of three replicates per treatment. Approximately 500 juveniles of Heterodera schachtii were added in 1 ml of water to each well. Nematodes in water served as controls. The plates were placed in a dark box and stored at room temperature. Nematode paralysis was determined after 24 hours incubation at 25° C. in darkness.

Row | SMILES | pest or weed control at 200 ppm [%]
1 | O=C(N[C@H]1CC[C@H]1c1ccc(Cl)cc1Cl)c1nccnc1Cl [Compound 61.3, 3-chloro-N-[(1S,2S)-2-(2,4-dichlorophenyl)cyclobutyl]pyrazine-2-carboxamide] | > 75
2 | O=C(N[C@H]1CC[C@H]1c1ccc(Cl)cc1Cl)c1ncccc1C(F)(F)F [Compound 61.4, N-[(1S,2S)-2-(2,4-dichlorophenyl)cyclobutyl]-3-(trifluoromethyl)pyridine-2-carboxamide] | > 75
3 | COc1cccnc1C(=O)N[C@H]1CC[C@H]1c1ccc(Cl)cc1 [Compound 61.11, N-[(1S,2S)-2-(4-chlorophenyl)cyclobutyl]-3-methoxypyridine-2-carboxamide] | > 75
4 | O=C(N[C@H]1CC[C@H]1c1ccc(Cl)cc1)c1sccc1Br [Compound 61.14, 3-bromo-N-[(1S,2S)-2-(4-chlorophenyl)cyclobutyl]thiophene-2-carboxamide] | > 75
5 | O=C(N[C@H]1CC[C@H]1c1ccc(Cl)cc1)c1ncccc1Br [Compound 61.15, 3-bromo-N-[(1S,2S)-2-(4-chlorophenyl)cyclobutyl]pyridine-2-carboxamide] | > 75
6 | O=C(N[C@H]1CC[C@H]1c1ccc(Cl)cc1)c1ccccc1Br [Compound 61.21, 2-bromo-N-[(1S,2S)-2-(4-chlorophenyl)cyclobutyl]benzamide] | > 75
7 | O=C(N[C@H]1CC[C@H]1c1ccc(Cl)cc1)c1c(F)cccc1Cl [Compound 61.22, 2-chloro-N-[(1S,2S)-2-(4-chlorophenyl)cyclobutyl]-6-fluorobenzamide] | > 75
8 | Cc1ncccc1C(=O)N[C@H]1CC[C@H]1c1ccc(Cl)cc1 [Compound 61.23, N-[(1S,2S)-2-(4-chlorophenyl)cyclobutyl]-2-methylpyridine-3-carboxamide] | > 75
9 | COc1cccc(F)c1C(=O)N[C@H]1CC[C@H]1c1ccc(Cl)cc1 [Compound 61.24, N-[(1S,2S)-2-(4-chlorophenyl)cyclobutyl]-2-fluoro-6-methoxybenzamide] | > 75
10 | Cc1cccc(F)c1C(=O)N[C@H]1CC[C@H]1c1ccc(Cl)cc1 [Compound 61.25, N-[(1S,2S)-2-(4-chlorophenyl)cyclobutyl]-2-fluoro-6-methylbenzamide] | > 75
11 | Cc1nccnc1C(=O)N[C@H]1CC[C@H]1c1ccc(Cl)cc1 [Compound 61.26, N-[(1S,2S)-2-(4-chlorophenyl)cyclobutyl]-3-methylpyrazine-2-carboxamide] | > 75
12 | O=C(N[C@H]1CC[C@H]1c1ccc(Cl)cc1)c1sccc1Cl [Compound 61.36, 3-chloro-N-[(1S,2S)-2-(4-chlorophenyl)cyclobutyl]thiophene-2-carboxamide] | > 75
13 | O=C(N[C@H]1CC[C@H]1c1ccc(Cl)cc1)c1ncccc1Cl [Compound 61.46, 3-chloro-N-[(1S,2S)-2-(4-chlorophenyl)cyclobutyl]pyridine-2-carboxamide] | > 75
14 | O=C(N[C@H]1CC[C@H]1c1ccc(Cl)cc1)c1ncccn1 [Compound 61.47, N-[(1S,2S)-2-(4-chlorophenyl)cyclobutyl]pyrimidine-2-carboxamide] | > 75
15 | O=C(N[C@H]1CC[C@H]1c1ccc(Cl)cc1)c1ccsc1Cl [Compound 61.52, 2-chloro-N-[(1S,2S)-2-(4-chlorophenyl)cyclobutyl]thiophene-3-carboxamide] | > 75
16 | O=C(N[C@H]1CC[C@H]1c1ccc(Cl)cc1)c1ccsc1I [Compound 61.53, N-[(1S,2S)-2-(4-chlorophenyl)cyclobutyl]-2-iodothiophene-3-carboxamide] | > 75
17 | O=C(N[C@H]1CC[C@H]1c1ccc(Cl)cc1)c1ccsc1C(F)(F)F [Compound 61.54, N-[(1S,2S)-2-(4-chlorophenyl)cyclobutyl]-2-(trifluoromethyl)thiophene-3-carboxamide] | > 75
18 | COc1cccnc1C(=O)N[C@H]1CC[C@H]1c1ccc(Cl)cc1Cl [Compound 61.56, N-[(1S,2S)-2-(2,4-dichlorophenyl)cyclobutyl]-3-methoxypyridine-2-carboxamide] | > 75
19 | COc1ccccc1C(=O)N[C@H]1CC[C@H]1c1ccc(Cl)cc1Cl [Compound 61.58, N-[(1S,2S)-2-(2,4-dichlorophenyl)cyclobutyl]-2-methoxybenzamide] | > 75
20 | O=C(N[C@H]1CC[C@H]1c1ccc(Cl)cc1Cl)c1sccc1Br [Compound 61.59, 3-bromo-N-[(1S,2S)-2-(2,4-dichlorophenyl)cyclobutyl]thiophene-2-carboxamide] | > 75

Row | SMILES | pest or weed control at 200 ppm [%]
21 | Cc1ccccc1C(=O)N[C@H]1CC[C@H]1c1ccc(Cl)cc1Cl [Compound 61.62, N-[(1S,2S)-2-(2,4-dichlorophenyl)cyclobutyl]-2-methylbenzamide] | > 75
22 | O=C(N[C@H]1CC[C@H]1c1ccc(Cl)cc1Cl)c1ccccc1F [Compound 61.65, N-[(1S,2S)-2-(2,4-dichlorophenyl)cyclobutyl]-2-fluorobenzamide] | > 75
23 | Cc1nccnc1C(=O)N[C@H]1CC[C@H]1c1ccc(Cl)cc1Cl [Compound 61.70, N-[(1S,2S)-2-(2,4-dichlorophenyl)cyclobutyl]-3-methylpyrazine-2-carboxamide] | > 75
24 | O=C(N[C@H]1CC[C@H]1c1ccc(Cl)cc1Cl)c1ccc[nH]1 [Compound 61.72, N-[(1S,2S)-2-(2,4-dichlorophenyl)cyclobutyl]-1H-pyrrole-2-carboxamide] | > 75
25 | Cc1ncoc1C(=O)N[C@H]1CC[C@H]1c1ccc(Cl)cc1Cl [Compound 61.73, N-[(1S,2S)-2-(2,4-dichlorophenyl)cyclobutyl]-4-methyl-1,3-oxazole-5-carboxamide] | > 75
26 | Cc1nscc1C(=O)N[C@H]1CC[C@H]1c1ccc(Cl)cc1Cl [Compound 61.74, N-[(1S,2S)-2-(2,4-dichlorophenyl)cyclobutyl]-3-methyl-1,2-thiazole-4-carboxamide] | > 75
27 | O=C(N[C@H]1CC[C@H]1c1ccc(Cl)cc1Cl)c1sccc1Cl [Compound 61.79, 3-chloro-N-[(1S,2S)-2-(2,4-dichlorophenyl)cyclobutyl]thiophene-2-carboxamide] | > 75
28 | O=C(N[C@H]1CC[C@H]1c1ccc(Cl)cc1Cl)c1ccccc1OC(F)(F)F [Compound 61.81, N-[(1S,2S)-2-(2,4-dichlorophenyl)cyclobutyl]-2-(trifluoromethoxy)benzamide] | > 75
29 | Cc1oncc1C(=O)N[C@H]1CC[C@H]1c1ccc(Cl)cc1Cl [Compound 61.83, N-[(1S,2S)-2-(2,4-dichlorophenyl)cyclobutyl]-5-methyl-1,2-oxazole-4-carboxamide] | > 75
30 | O=C(N[C@H]1CC[C@H]1c1ccc(Cl)cc1Cl)c1c(F)cccc1C(F)(F)F [Compound 61.84, N-[(1S,2S)-2-(2,4-dichlorophenyl)cyclobutyl]-2-fluoro-6-(trifluoromethyl)benzamide] | > 75
31 | O=C(N[C@H]1CC[C@H]1c1ccc(Cl)cc1Cl)C1=C(C(F)(F)F)OCCS1 [Compound 61.85, N-[(1S,2S)-2-(2,4-dichlorophenyl)cyclobutyl]-6-(trifluoromethyl)-2,3-dihydro-1,4-oxathiine-5-carboxamide] | > 75
32 | CC1=C(C(=O)N[C@H]2CC[C@H]2c2ccc(Cl)cc2Cl)SCCO1 [Compound 61.86, N-[(1S,2S)-2-(2,4-dichlorophenyl)cyclobutyl]-6-methyl-2,3-dihydro-1,4-oxathiine-5-carboxamide] | > 75
33 | O=C(N[C@H]1CC[C@H]1c1ccc(Cl)cc1Cl)c1ccsc1Br [Compound 61.87, 2-bromo-N-[(1S,2S)-2-(2,4-dichlorophenyl)cyclobutyl]thiophene-3-carboxamide] | > 75
34 | O=C(N[C@H]1CC[C@H]1c1ccc(Cl)cc1Cl)c1cscn1 [Compound 61.88, N-[(1S,2S)-2-(2,4-dichlorophenyl)cyclobutyl]-1,3-thiazole-4-carboxamide] | > 75
35 | O=C(N[C@H]1CC[C@H]1c1ccc(Cl)cc1Cl)c1ccccc1Cl [Compound 61.89, 2-chloro-N-[(1S,2S)-2-(2,4-dichlorophenyl)cyclobutyl]benzamide] | > 75
36 | O=C(N[C@H]1CC[C@H]1c1ccc(Cl)cc1Cl)c1ncccn1 [Compound 61.90, N-[(1S,2S)-2-(2,4-dichlorophenyl)cyclobutyl]pyrimidine-2-carboxamide] | > 75
37 | N#Cc1ccccc1C(=O)N[C@H]1CC[C@H]1c1ccc(Cl)cc1Cl [Compound 61.91, 2-cyano-N-[(1S,2S)-2-(2,4-dichlorophenyl)cyclobutyl]benzamide] | > 75
38 | Cc1cccnc1C(=O)N[C@H]1CC[C@H]1c1ccc(Cl)cc1Cl [Compound 61.92, N-[(1S,2S)-2-(2,4-dichlorophenyl)cyclobutyl]-3-methylpyridine-2-carboxamide] | > 75
39 | O=C(N[C@H]1CC[C@H]1c1ccc(Cl)cc1Cl)c1ccsc1I [Compound 61.96, N-[(1S,2S)-2-(2,4-dichlorophenyl)cyclobutyl]-2-iodothiophene-3-carboxamide] | > 75

Same assay, conditions: 24 h, read-out: nematode immobilization compared to the untreated control

Row | SMILES | pest or weed control at 200 ppm [%]
40 | Cc1nc(C(F)(F)F)c(C(=O)N[C@H]2CC[C@H]2c2ccc(Cl)cc2Cl)s1 [Compound 61.93, N-[(1S,2S)-2-(2,4-dichlorophenyl)cyclobutyl]-2-methyl-4-(trifluoromethyl)-1,3-thiazole-5-carboxamide] | > 75
